Source: patent US10350334B2, “Catheter locking solution having antimicrobial and anticoagulation properties” (Becton, Dickinson and Company, priority 2009, dated 2019)

Tested on: Staphylococcus epidermidis
Assay: Planktonic cell tests
Assay type: cell-based
Conditions: 12 mg/mL, 30 and 60 minutes
Procedure: In the planktonic cell tests, bupivacine was tested against non-adhering coagulase negative S. epidermidis, which is the bacterial species most prominent in the pathogenesis of CR-BSI. The planktonic cell experiments were performed by the following procedures. First, bacterial suspensions were prepared. Particularly, using BD BBL™ Qualiswab™, S. epidermidis was plated on a Tryptic Soy Broth (TSB) Petri Dish and grown overnight at 37° C. Using a sterile loop, a colony of S. epidermidis was picked up from the TSB Petri Dish and placed into a sterile flask containing 25 mL of sterile TSB media. The flask was then placed in a 37° C. shaking incubator and was shaken at 150 RPM overnight. The next day, 15 mL of the prepared bacterial suspension was placed into an autoclaved centrifuge tube and centrifuged at 10,000 RPM for 10 minutes using a Sorval Centrifuge. The bacteria from the bacterial suspension were rinsed in 0.9% saline by discarding the liquid media (after centrifugation step) and by resuspending the microbial pellet in 20 mL of sterile 0.9% saline. The bacteria were centrifuged and rinsed twice more, for a total of three saline rinses. […]
Bulk concentrations of the bupivacaine and/or vancomyacin (as noted in FIG. 1) were prepared in separate beakers and were filter sterilized. […] Samples were also assessed at time 0, in which there was no exposure to antimicrobials. […]

`CCCCN1CCCCC1C(=O)Nc1c(C)cccc1C.Cl` (stereo not shown) [Bupivacaine, Bupivacaine HCl] was tested, and the “antimicrobial effect against planktonic Staphylococcus epidermidis” value was “significant antimicrobial effect”.
